From patent US20260240802A1, “USE OF MYRIOCIN AS ADJUVANT IN GLAUCOMA SURGERY” (priority 2023, published 2026)
Entries after “also recorded” stand apart in the source; their conditions may differ. Where two headings read alike, the source gives them in different places.

Assays:
[1] = tested on: human dermic fibroblasts; type: cell-based; conditions: fibroblasts activated with TGFβ, compared with mitomycin C
Protocol: The anti-fibrotic activity of myriocin, compared to that of mitomycin C, was evaluated in vitro by using human dermic fibroblasts of healthy subjects, available commercially.
(§1) The fibroblasts, cultivated in culture medium DMEM (EuroClone) additioned with 10% of Fetal Bovine Serum (EuroClone) and 1% of penicillin/streptomycin (Sigma-Aldrich), were kept in incubator at 37° C., 5% of CO2 until reaching the full confluence which corresponds approximately to 1.2-1.3*10^6 cells. After detachment from the culture flasks (T75) with a solution of trypsin/EDTA, 1.5-2.5*10^5 or 4.0*10^5 fibroblasts were respectively plated in 60-mm or 100-mm wide Petri dishes for the subsequent treatments.
The cells were divided into six experimental groups: • 1. control group without treatment (denominated ctr) • 2. group treated with TGFβ (denominated TGFβ) • 3. group treated with Myriocin and TGFβ (denominated Myr/TGFβ) • 4. group treated with Mitomycin C and TGFβ (denominated Mito/TGFβ) • 5. group treated with Myriocin (denominated Myr) • 6. group treated with Mitomycin C (denominated Mito)
On the day of treatment, in groups ctr, TGFβ, Myr, Myr/TGFβ the culture medium was replaced by fresh medium. The groups Myr and Myr/TGFβ were pretreated for 1 hour with myriocin 5 mM (Sigma-Aldrich) so as to obtain a final concentration of 50 μM. […]

[2] = tested on: human dermic fibroblasts; test: Scratch test assay; type: cell-based
Protocol: as §1
In six-well plates, 150,000 fibroblasts/well were plated and left to proliferate until reaching a confluence of 80-90%. At this point, defined time zero (T0), the cellular monolayer is damaged by creating a vertical groove corresponding to the well diameter.

[3] = tested on: human dermic fibroblasts; type: cell-based; conditions: for total cells after 24 hours of treatment: human
Protocol: as §1
The fibroblasts, cultivated in ninety-six-well plates, were divided into the experimental groups: ctr, Mito and Myr. 24 hours after sowing (T0), the controls were collected for counting the live and dead cells and one proceeded with the treatment of the groups Mito and Myr for the subsequent 24 hours, with the respective substances. After detachment with a solution of trypsin/EDTA, the fibroblasts were isolated by centrifugation (100 g×6 minutes) and the obtained precipitate was resuspended in phosphate buffer. To the cellular suspension, 10% of 0.4% Trypan Blue dye solution was added. The live cells and the dead cells, coloured blue for the intracellular permeation of the dye through the damaged plasmatic membrane, are counted by using Bürker camera (Fabiani C., et al., Naunyn-Schmiedebergs Arch. Pharmacol. 2017; 390:741-751).

[4] = target: T1, serine-palmitoyl transferase (Homo sapiens, UniProt O15269+O15270); test: mass spectrometry of the ceramide content of fibroblasts; type: cell-based; conditions: myriocin 50 μM
T1 construct: the fibroblasts were isolated by centrifugation; endogenous in cells
T1 sequence (O15269 1-473): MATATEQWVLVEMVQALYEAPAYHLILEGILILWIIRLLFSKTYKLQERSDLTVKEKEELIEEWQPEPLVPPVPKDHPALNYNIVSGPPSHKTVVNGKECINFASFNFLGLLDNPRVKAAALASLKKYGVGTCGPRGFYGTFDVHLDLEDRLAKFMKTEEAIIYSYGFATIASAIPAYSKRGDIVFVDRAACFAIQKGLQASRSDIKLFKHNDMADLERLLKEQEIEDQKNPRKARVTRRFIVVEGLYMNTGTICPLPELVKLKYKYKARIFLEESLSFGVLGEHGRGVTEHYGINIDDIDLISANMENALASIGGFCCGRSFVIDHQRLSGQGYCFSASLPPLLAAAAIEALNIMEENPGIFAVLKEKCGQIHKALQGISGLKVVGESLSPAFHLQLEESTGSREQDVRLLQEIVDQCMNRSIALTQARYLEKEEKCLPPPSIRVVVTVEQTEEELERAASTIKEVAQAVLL
T1 sequence (O15270 1-562): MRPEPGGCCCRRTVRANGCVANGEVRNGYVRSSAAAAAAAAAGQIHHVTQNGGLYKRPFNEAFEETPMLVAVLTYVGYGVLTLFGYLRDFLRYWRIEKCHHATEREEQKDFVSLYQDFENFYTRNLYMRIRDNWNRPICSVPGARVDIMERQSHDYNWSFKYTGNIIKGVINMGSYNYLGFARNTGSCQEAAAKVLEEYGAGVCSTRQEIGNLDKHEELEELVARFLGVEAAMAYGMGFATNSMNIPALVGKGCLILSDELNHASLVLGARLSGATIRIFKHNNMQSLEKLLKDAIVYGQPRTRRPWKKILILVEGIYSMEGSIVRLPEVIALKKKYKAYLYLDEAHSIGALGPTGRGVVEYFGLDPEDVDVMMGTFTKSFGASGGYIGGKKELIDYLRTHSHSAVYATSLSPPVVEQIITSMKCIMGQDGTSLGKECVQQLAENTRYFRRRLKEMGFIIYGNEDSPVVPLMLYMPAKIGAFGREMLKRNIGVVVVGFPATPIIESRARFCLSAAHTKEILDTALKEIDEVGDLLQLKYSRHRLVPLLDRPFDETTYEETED
T1 sequence (Q969W0 1-71 partner): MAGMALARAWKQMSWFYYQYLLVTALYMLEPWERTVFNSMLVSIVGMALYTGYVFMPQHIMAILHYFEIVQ
Protocol: On the day of treatment, in groups ctr, TGFβ, Myr, Myr/TGFβ the culture medium was replaced by fresh medium. The groups Myr and Myr/TGFβ were pretreated for 1 hour with myriocin 5 mM (Sigma-Aldrich) so as to obtain a final concentration of 50 μM. […] The pretreatment with mitomycin C, lasting 5 minutes to simulate the administration time in the operating room of the drug on the patient suffering from glaucoma, was interrupted by two washes, each one lasting 2 minutes, with phosphate buffer (PBS). To the groups TGFβ, Myr/TGFβ and Mito/TGFβ, TGFβ 200 ng/ml is then added to obtain a final concentration of 5 ng/ml, as reported in literature (Wu N. et al., Mol Cell Biochem. 2020; 470:175-188). The fibroblasts were then put in incubator for 24 hours, until performing the different analyses.
After detachment with a solution of trypsin/EDTA, the fibroblasts were isolated by centrifugation (100 g×6 minutes). The obtained precipitate was resuspended in phosphate buffer (PBS), centrifuged at 100 g×6 minutes, resuspended again in phosphate buffer (PBS) and centrifuged at 500 g×5 minutes at 4° C. The precipitate was resuspended in 100 μl of PBS containing a mixture of protease inhibitors (Protease Inhibitor Cocktails, EDTA-free, Roche) and kept at −20° C. until use. The extraction of the lipids and the analysis of the samples for evaluating the ceramide content, whose synthesis is locked by inhibiting the enzyme serine-palmitoyl transferase by Myr, follow published protocols (Morano C. et al., Metabolites. 2022; 12 (5): 450).

[5] = tested on: αSMA (α Smooth Muscle Actin); test: RT-PCR expression of transcript αSMA in fibroblasts; type: cell-based, human; conditions: myriocin 50 μM 1 hour pretreatment + 24 hours with TGFβ 5 ng/ml
Protocol: (§2) Expression of the transcript (mRNA) of αSMA, CTGF, MMP-9 evaluated by RT-PCR, in fibroblasts: control (ctr); stimulated with TGFβ (TGFβ); pretreated 1 hour with Myriocin and for the subsequent 24 hours in combination with TGFβ (Myr/TGFβ); pretreated 5 minutes with Mitomycin C, washed and treated for the subsequent 24 hours with TGFβ (Mito/TGFβ); pretreated 1 hour with Myriocin and for the subsequent 24 hours with Myriocin (Myr); pretreated 5 minutes with Mitomycin C, washed and for the subsequent 24 hours with culture medium (Mito). The results represent the average±standard error of 5 experiments and they are represented as variation with respect to the control (ratio between the expression in the various groups and the control). The control is set equal to 1 and designated in figure with the dotted line. […]
(§3) The following transcripts of interest were analysed: • αSMA (α Smooth Muscle Actin): marker of the activation of the fibroblasts to miofibroblasts; • CTGF (Connective Tissue Growth Factor): protein of the extracellular matrix with pro-fibrotic activity; • MMP-9 (Matrix metalloproteinase 9): enzyme which degrades the proteins of the extracellular matrix.

[6] = tested on: CTGF (Connective Tissue Growth Factor); test: RT-PCR expression of transcript CTGF in fibroblasts; type: cell-based, human; conditions: myriocin 50 μM 1 hour pretreatment + 24 hours with TGFβ 5 ng/ml
Protocol: as §2, §3

[7] = tested on: MMP-9 (Matrix metalloproteinase 9); test: RT-PCR expression of transcript MMP-9 in fibroblasts; type: cell-based, human; conditions: myriocin 50 μM 1 hour pretreatment + 24 hours with TGFβ 5 ng/ml
Protocol: as §2, §3

[8] = tested on: collagen; test: transcription and translation of collagen in fibroblasts (FIG. 4); type: cell-based; conditions: pre-treated 1 hour with Myriocin 50 µM, then 24 hours in combination with TGFβ 5 ng/ml
Protocol: FIG. 4: Ctrl: not treated fibroblasts; TGFβ: fibroblasts treated 24 hours with TGFβ 5 ng/ml; TGFβ/Myr: fibroblasts pre-treated 1 hour with Myriocin 50 µM and for subsequent 24 hours in combination with TGFβ 5 ng/ml; TGFβ/Mito: fibroblasts pre-treated 5 minutes with Mitomycin 50 µM, and for subsequent 24 hours with TGFβ 5 ng/ml in absence of Mitomycin.

[9] = tested on: fibroblasts; test: proliferation/vitality MTT assay; type: cell-based; conditions: 24 hours, Myriocin 50 μM, not treated fibroblasts = 100%
Protocol: These proliferation data result to be an improvement with respect to those obtained by the authors with JM47.2, which is equivalent to a concentration of approximately 56 μM, not considered among the effective concentrations in anti-fibrotic sense.

[10] = tested on: postoperative fibrosis; conditions: after 5 years, mitomycin C in intraoperative therapy (before: 24-74% after 4 years); cited from earlier work
[11] = tested on: fibroblasts; conditions: Josamycin 69.4 μg/ml (JM69.4); cited from earlier work

Question: With `CCCCCCC(=O)CCCCCC/C=C/C[C@@H](O)[C@H](O)[C@@](N)(CO)C(=O)O` [Myriocin] as the molecule, how does the anti-fibrotic efficacy [1] read?
Answer: The anti-fibrotic efficacy was “comparable to mitomycin C”.

Question: And the anti-fibrotic efficacy ([1]; listed as myriocin)?
Answer: Its anti-fibrotic efficacy is “comparable to that of the drug mitomycin C”.

Question: What about the “migration of fibroblasts after damage of the cellular carpet” value ([2]; 50 μM, 24 and 48 hours) of the same molecule?
Answer: Its value is “migrate only partially”.

Question: What about the “migration of fibroblasts after damage of the cellular carpet” value ([2]; 50 μM, 24 and 48 hours, listed as myriocin) of the same molecule?
Answer: The value was “reduced the migration of fibroblasts”.

Question: And the “increase of total cells after 24 hours” value ([3]; after 24 hours vs T0)?
Answer: The value was “about 70%”.

Question: What about the “total cells after 24 hours of treatment” value [3] of the same molecule?
Answer: The value was 11733 total cells/well.

Question: What about the “reduction of ceramide level with respect to basal ctr” value ([4]; Myr group vs ctr) of the same molecule?
Answer: The value was “about 15%”.

Question: What about the “reduction of dihydroceramide level with respect to basal ctr” value ([4]; Myr group vs ctr) of the same molecule?
Answer: The value was about 25%.

Question: And the “reduction of ceramide level with respect to the group stimulated with TGFβ” value ([4]; Myr/TGFβ vs TGFβ, TGFβ 5 ng/ml)?
Answer: The value was about 50%.

Question: What about the “reduction of dihydroceramide level with respect to the group stimulated with TGFβ” value ([4]; Myr/TGFβ vs TGFβ, TGFβ 5 ng/ml) of the same molecule?
Answer: The value was about 60%.

Question: And the “reduction of αSMA transcript expression increase induced by TGFβ” value [5]?
Answer: The value was “more effective than mitomycin C; also recorded: reduces the expression of αSMA”.

Question: And the “reduction of CTGF transcript expression increase induced by TGFβ” value [6]?
Answer: Its value is “more effective than mitomycin C”.

Question: What about the “reduction of MMP-9 transcript expression increase induced by TGFβ” value [7] of the same molecule?
Answer: The value was “more effective than mitomycin C; also recorded: reducing the expression of MMP-9”.

Question: What about the “transcription (panel A) and translation (panel B) of collagen” value [8] of the same molecule?
Answer: Its value is “capable of controlling the transcription (panel A) and the translation (panel B) of collagen”.

Question: What about the “% proliferation (relative proliferation/vitality index)” value [9] of the same molecule?
Answer: Its value is “higher than 60%”.

Question: What about the “% proliferation (relative proliferation/vitality index)” value ([9]; listed as MYR) of the same molecule?
Answer: The value was 62%.

Question: What does the source list for `CO[C@@]12[C@H](COC(N)=O)C3=C(C(=O)C(C)=C(N)C3=O)N1C[C@@H]1N[C@@H]12` [Mitomycin C]?
Answer: cellular death ([2]; 50 μM, 24 and 48 hours): induced a progressive cellular death; migration of fibroblasts after damage of the cellular carpet ([2]; 50 μM, 24 and 48 hours, listed as Mitomycin): migrate only partially; migration of fibroblasts after damage of the cellular carpet ([2]; 50 μM, 24 and 48 hours, listed as mitomycin C): reduced the migration of fibroblasts; morphological change of fibroblasts ([2]; between T1 (24 hours) and T2 (48 hours)): progressive morphological change (from tapering to rounded); change of total cells after 24 hours [3]: halved; total cells after 24 hours of treatment [3]: 5466 total cells/well; percentage of failure of the surgical therapy [10]: 23-51%

Question: With `CO[C@@H]1[C@@H](O[C@@H]2O[C@H](C)[C@@H](O[C@H]3C[C@@](C)(O)[C@@H](OC(=O)CC(C)C)[C@H](C)O3)[C@H](N(C)C)[C@H]2O)[C@@H](CC=O)C[C@@H](C)[C@@H](O)/C=C/C=C/C[C@@H](C)OC(=O)C[C@H]1OC(C)=O` [Josamycin] as the molecule, how does the “proliferation percentage of the fibroblasts” value [11] read?
Answer: Its value is “less than 50%”.
